Where a name gives a salt, the structure may show the parent alone.
What was measured:
[1] = system: colonic microbiota (fecal inoculum of two healthy adults); experiment: Microbiome diversity, alpha and beta (second set); type: cell-based, human
Protocol: (§1) In a second set of in vitro experiments, at the start of the short-term colonic incubations, the test ingredients were added to nutritional medium containing basal nutrients present in the colon (e.g. host-derived glycans such as mucin). Three doses were tested per product. The nutritional medium used for this particular project was again supplemented with NaCl, MgSO4, CaCl2, hemin and bile salts, and with carbon sources glucose, starch and cellobiose. A blank, containing the same nutritional medium as that used for the product incubations, but without product addition, was included for each donor. In doing so, an assessment can be made of the background activity of the bacterial community, which results from fermentation of compounds in the nutritional medium. As a source of the colonic microbiota a fecal inoculum of two healthy adults was added. Incubations were performed for 48 h at 37′C, under shaking (90 rpm) and anaerobic conditions and protected from light. […] For the second set of in vitro experiments, two techniques were combined according to Vandeputte et al.

[2] = system: colonic microbiota (fecal inoculum of two healthy adults); experiment: 16S-targeted Illumina sequencing with flow cytometry, taxa abundance (second set); type: cell-based, human; details: 24 h fermentation
Protocol: as §1

SMILES	alpha-diversity (Shannon diversity index) ([1]; 5× dose, donor D)	beta-diversity (Bray-Curtis distance to control) ([1]; 5× dose, donor D)	Akkermansiaceae relative abundance ([2]; 0.2× dose, donor D)	Faecalibacterium prausnitzii relative abundance ([2]; 0.2× dose, donor D)	Erysipelotrichaceae relative abundance ([2]; 1× dose, donor C)	Bifidobacteriaceae relative abundance ([2]; 1× dose, donor D)	Faecalibacterium prausnitzii relative abundance ([2]; 1× dose, donor D)	Bifidobacteriaceae relative abundance ([2]; 5× dose, donor D)	Faecalibacterium prausnitzii relative abundance ([2]; 5× dose, donor D)	beta-diversity (Bray-Curtis distance to control) ([1]; 0.2× dose, donor D)	alpha-diversity (Shannon diversity index) ([1]; 1× dose, donor C)	Erysipelotrichaceae relative abundance ([2]; 5× dose, donor C)	other results
O=C(O)CCCC[C@@H]1SC[C@@H]2NC(=O)N[C@@H]21 [biotin, D-Biotin]	increases alpha-diversity	increases beta-diversity	increase Akkermansiaceae relative abundance	increase Faecalibacterium prausnitzii relative abundance	increase Erysipelotrichaceae relative abundance	increase Bifidobacteriaceae relative abundance	increase Faecalibacterium prausnitzii relative abundance	increase Bifidobacteriaceae relative abundance	increase Faecalibacterium prausnitzii relative abundance				alpha-diversity (Shannon diversity index) ([1]; 0.2× dose, both donors): increases alpha-diversity; beta-diversity (Bray-Curtis distance to control) ([1]; 1× dose, both donors): increases beta-diversity; Erysipelotrichaceae relative abundance ([2]; 0.2× dose, donor C): increase Erysipelotrichaceae relative abundance; Bifidobacteriaceae relative abundance ([2]; 0.2× dose, donor D): increase Bifidobacteriaceae relative abundance; Barnesiellaceae relative abundance ([2]; 1× dose, donor D): increase Barnesiellaceae relative abundance
NC(=O)c1cccnc1 [niacinamide, Niacinamide]		increases beta-diversity			increase Erysipelotrichaceae relative abundance					increases beta-diversity	increases alpha-diversity	increase Erysipelotrichaceae relative abundance	Akkermansiaceae relative abundance ([2]; 0.2× dose, donor C): increase Akkermansiaceae relative abundance
Cc1ncc(CO)c(CO)c1O.Cl [pyridoxine, Pyridoxine Hydrochloride]	increases alpha-diversity	increases beta-diversity	increase Akkermansiaceae relative abundance	increase Faecalibacterium prausnitzii relative abundance	increase Erysipelotrichaceae relative abundance	increase Bifidobacteriaceae relative abundance	increase Faecalibacterium prausnitzii relative abundance	increase Bifidobacteriaceae relative abundance	increase Faecalibacterium prausnitzii relative abundance	increases beta-diversity			beta-diversity (Bray-Curtis distance to control) ([1]; 1× dose, donor D): increases beta-diversity; Akkermansiaceae relative abundance ([2]; 1× dose, donor D): increase Akkermansiaceae relative abundance; Prevotellaceae relative abundance ([2]; 5× dose, donor C): increase Prevotellaceae relative abundance; Akkermansiaceae relative abundance ([2]; 5× dose, donor D): increase Akkermansiaceae relative abundance; Veillonellaceae relative abundance ([2]; 5× dose, donor D): increase Veillonellaceae relative abundance
Cc1ncc(C[n+]2csc(CCO)c2C)c(N)n1 [thiamine, Thiamine Hydrochloride]		increases beta-diversity									increases alpha-diversity	increase Erysipelotrichaceae relative abundance	alpha-diversity (Shannon diversity index) ([1]; 0.2× dose, donor C): increases alpha-diversity; beta-diversity (Bray-Curtis distance to control) ([1]; 1× dose, donor C): increases beta-diversity; Akkermansiaceae relative abundance ([2]; 1× dose, donor C): increase Akkermansiaceae relative abundance
